Patent US20120244089A1, “USE OF THIAZOLE COMPOUND IN FLAVOR APPLICATIONS” (priority 2009, published 2012)
“Also recorded” adds a separate entry of the source.

What was measured:
[1] = Flavor evaluation in a dairy product sample (mixed berry yogurt); settings: 5 ppb
Experimental: The flavor properties of 2-ethyl-4-methyl-2,5-dihydro-thiazole were evaluated in a dairy product sample. A mixed berry yogurt sample was used whose ingredients included cultured pasteurized grade A nonfat milk, high fructose corn syrup, modified corn starch, nonfat milk, kosher gelatin, corn starch, tricalcium phosphate, natural flavor, potassium sorbate added to maintain freshness, sucralose (splenda brand,) acesulfame potassium, colored with annatto extract, vitamin A acetate, and vitamin D3.

[2] = Flavor evaluation in a soft drink sample (orange soda); settings: 5 ppb
Experimental: The flavor properties of 2-ethyl-4-methyl-2,5-dihydro-thiazole were evaluated in a soft drink sample. An orange soda was used whose ingredients included carbonated water, high fructose corn syrup, citric acid, potassium benzoate, gum acacia, natural flavor, ester gum, yellow 6, brominated vegetable oil, and red 40.

[3] = Flavor evaluation in an oatmeal sample; settings: plain instant oatmeal
Experimental: The flavor properties of 2-ethyl-4-methyl-2,5-dihydro-thiazole were evaluated in an oatmeal sample. Commercially available plain instant oatmeal was used whose ingredients included whole grain rolled oats, calcium carbonate, salt, guar gum, caramel color, reduced iron, niacinamide, vitamin A, palmitate, pyridoxine, hydrochloride, riboflavin, thiamin mononitrate, and folic acid.

[4] = Flavor description in water; settings: 1 ppb
[5] = Flavor evaluation in water by a trained sensory panel, 9-point hedonic scale; settings: for Flavor Intensity: 9-point hedonic scale
Experimental: The flavor properties of 2-ethyl-4-methyl-2,5-dihydro-thiazole (Formula I), 4-ethyl-2-methyl-3-thiazole (Formula II), and 4-methyl-2-propyl-2,5-dihydro-thiazole (Formula III) in water were evaluated by a trained sensory panel using the 9-point hedonic scale.

[6] = Flavor evaluation in a beef broth sample; settings: 4 ppb
Experimental: The flavor properties of 2-ethyl-4-methyl-2,5-dihydro-thiazole were evaluated in a beef broth sample. The beef broth sample included beef broth and less than 1% of the following: salt, MSG, hydrolyzed corn protein, hydrolyzed soy protein, hydrolyzed wheat protein, dextrose, onion powder, autolyzed yeast extract, caramel color, partially hydrogenated soybean oil, natural flavor, thiamine hydrochloride, disodium inosinate, and disodium guanylate.

CCC1N=C(C)CS1 (stereo not shown) [Formula I, 2-ethyl-4-methyl-2,5-dihydro-thiazole]
Flavor effect [1]: boosted the fruity note and imparted a peach note
Flavor effect [2]: provided the feel of a tangerine soda and more natural taste and having cut the acidity
Flavor effect ([3]; 1 ppb): added faint sulfurous note and synergized with grain note
Flavor effect ([3]; 5 ppb): sulfurous and peach notes
Flavor notes [4]: tropical fruit, catty, peach, and berry flavor notes
Flavor Profile ([5]; 100 ppb): Tropical, fruit, peach,; also recorded: slightly catty, and meaty; also recorded: Very strong
Flavor Intensity ([5]; 100 ppb): 7.11
Flavor character, comparison with analogs ([5]; summary of the panel results): unexpected strong and long-lasting fruity character; also recorded: superior to all other structurally closely related analogs
Flavor effect [6]: boosted the roast note and imparted additional tropical note

CCC1=NC(C)SC1 (stereo not shown) [Formula II, 4-Ethyl-2-methyl-2,5-dihydro-thiazole]
Flavor Profile ([5]; 1 ppm): Nutty and cabbage
Flavor Intensity ([5]; 1 ppm): 1

CCCC1N=C(C)CS1 (stereo not shown) [Formula III, 4-Methyl-2-propyl-2,5-dihydro-thiazole]
Flavor Profile ([5]; 350 ppb): Sulfury, nutty, and skunk; also recorded: Strong
Flavor Intensity ([5]; 350 ppb): 3.33
